“And” between values parts separate entries of the source, which are not always exact repeats. Equal values may be shown once. Read-outs that look alike come from different tables or passages of the source.
Tests used:
[1] = molecular target: TTR in human serum (Homo sapiens, UniProt P02766); experiment: TTR serum fluorescent probe exclusion (FPE) selectivity assay; assay type: binding; details: ligand 10 µM; for % TTR occupancy in human serum: FPE probe 3.6 µM, 3 h reading relative to probe alone, text mean ± s.d., table replicates; for %FPE probe fluorescence: human serum, replicates
[2] = molecular target: purified human TTR (Homo sapiens, UniProt P02766); experiment: Fluorescence polarization (FP) binding assay, ligands to TTR in buffer
[3] = molecular target: human mu-opioid receptors (Homo sapiens, UniProt P35372); experiment: biochemical; assay type: binding
Sequence of human mu-opioid receptors (P35372 whole entry): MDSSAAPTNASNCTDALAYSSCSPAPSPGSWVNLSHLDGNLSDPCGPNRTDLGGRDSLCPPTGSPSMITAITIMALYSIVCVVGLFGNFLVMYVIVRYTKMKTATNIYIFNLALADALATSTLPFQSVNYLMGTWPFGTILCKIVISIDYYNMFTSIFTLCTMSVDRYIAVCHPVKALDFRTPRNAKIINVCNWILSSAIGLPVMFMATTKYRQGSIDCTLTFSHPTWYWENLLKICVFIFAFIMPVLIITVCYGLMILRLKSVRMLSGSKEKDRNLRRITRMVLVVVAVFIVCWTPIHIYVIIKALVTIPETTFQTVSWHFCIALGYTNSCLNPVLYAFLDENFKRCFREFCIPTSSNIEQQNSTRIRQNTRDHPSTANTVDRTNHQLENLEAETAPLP

[4] = system: male Sprague-Dawley rats; details: rat, in vivo
[5] = system: male Sprague-Dawley rats; experiment: Gastrointestinal (GI) transit (charcoal meal) assays; assay type: in vivo, rat; details: rat, in vivo, sc

Cc1n[nH]c(C)c1CCCOc1cc(C(=O)O)ccc1F [AG10, reference compound]
% TTR occupancy in human serum [1]: 97.40% and 95.62% and 96.92% and 97.81%
%FPE probe fluorescence ([1]; time 0.000 h): 0.000%
%FPE probe fluorescence ([1]; time 0.083 h): 0.700% and 0.333% and 1.346% and -0.971%
%FPE probe fluorescence ([1]; time 0.250 h): 0.446% and 0.461% and 3.649% and -0.301%
%FPE probe fluorescence ([1]; time 0.500 h): -1.954% and 0.832% and 3.724% and 2.441%
%FPE probe fluorescence ([1]; time 1.000 h): -0.363% and 4.377% and 2.966% and 3.350%
%FPE probe fluorescence ([1]; time 1.250 h): 2.954% and 2.394% and 3.246% and -1.477%
%FPE probe fluorescence ([1]; time 1.500 h): 2.170% and 0.641% and 2.641% and 0.126%
%FPE probe fluorescence ([1]; time 1.750 h): 0.743% and 3.255% and 1.620% and 2.521%
%FPE probe fluorescence ([1]; time 2.000 h): 4.231% and 0.837% and 2.557% and 0.855%
%FPE probe fluorescence ([1]; time 2.250 h): 5.793% and 2.286% and 2.057% and 0.029%
%FPE probe fluorescence ([1]; time 2.500 h): 6.054% and 2.118% and 3.144% and 0.438%
%FPE probe fluorescence ([1]; time 2.750 h): 2.727% and 2.921% and 3.595% and 1.032%
%FPE probe fluorescence ([1]; time 3.000 h): 2.597% and 4.380% and 3.077% and 2.193%
%FPE probe fluorescence ([1]; time 3.500 h): 3.724% and 3.796% and 4.505% and 2.484%
%FPE probe fluorescence ([1]; time 3.750 h): 3.879% and 3.578% and 5.075% and 1.835%
%FPE probe fluorescence ([1]; time 4.000 h): 3.514% and 5.359% and 4.237% and 1.611%
%FPE probe fluorescence ([1]; time 4.250 h): 3.887% and 3.398% and 4.915% and 2.063%
%FPE probe fluorescence ([1]; time 4.500 h): 4.733% and 4.892% and 5.145% and 3.486%
%FPE probe fluorescence ([1]; time 4.750 h): 6.115% and 5.517% and 7.470% and 4.138%
%FPE probe fluorescence ([1]; time 5.000 h): 6.088% and 5.023% and 7.566% and 3.162%
%FPE probe fluorescence ([1]; time 5.250 h): 5.909% and 5.424% and 7.406% and 4.467%
%FPE probe fluorescence ([1]; time 5.500 h): 6.587% and 5.102% and 7.881% and 3.568%
%FPE probe fluorescence ([1]; time 5.750 h): 6.453% and 4.461% and 7.648% and 5.604%
%FPE probe fluorescence ([1]; time 6.000 h): 4.737% and 6.705% and 8.837% and 3.939%

C=CCN1CC[C@]23c4c5ccc(O)c4O[C@H]2[C@@H](OCc2cn(CCOCCOCCNCCCCCCOc4cc(OCCCc6c(C)n[nH]c6C)cc(C(=O)O)c4)nn2)CC[C@@]3(O)[C@H]1C5 [AG10-L1-Nal]
% TTR occupancy in human serum [1]: 71.5 ± 1.8% and 70.26% and 71.49% and 74.04% and 70.09%
%FPE probe fluorescence ([1]; time 0.000 h): 0.000%
%FPE probe fluorescence ([1]; time 0.083 h): 1.080% and 0.767% and -1.456% and -0.892%
%FPE probe fluorescence ([1]; time 0.250 h): 2.570% and 0.301% and -1.690% and -0.400%
%FPE probe fluorescence ([1]; time 0.500 h): 1.410% and 3.016% and 1.843% and 4.013%
%FPE probe fluorescence ([1]; time 1.000 h): 5.261% and 6.236% and 4.568% and 2.982%
%FPE probe fluorescence ([1]; time 1.250 h): 9.024% and 8.732% and 5.446% and 7.822%
%FPE probe fluorescence ([1]; time 1.500 h): 10.681% and 11.389% and 3.787% and 9.124%
%FPE probe fluorescence ([1]; time 1.750 h): 16.590% and 14.034% and 12.392% and 15.982%
%FPE probe fluorescence ([1]; time 2.000 h): 16.797% and 16.410% and 12.993% and 18.679%
%FPE probe fluorescence ([1]; time 2.250 h): 24.164% and 18.098% and 17.162% and 21.660%
%FPE probe fluorescence ([1]; time 2.500 h): 24.735% and 22.591% and 22.580% and 23.970%
%FPE probe fluorescence ([1]; time 2.750 h): 27.729% and 25.808% and 22.823% and 27.770%
%FPE probe fluorescence ([1]; time 3.000 h): 29.742% and 28.511% and 25.959% and 29.908%
%FPE probe fluorescence ([1]; time 3.500 h): 34.408% and 33.995% and 32.949% and 35.412%
%FPE probe fluorescence ([1]; time 3.750 h): 36.701% and 36.516% and 34.676% and 37.256%
%FPE probe fluorescence ([1]; time 4.000 h): 39.055% and 39.875% and 38.359% and 40.118%
%FPE probe fluorescence ([1]; time 4.250 h): 42.939% and 41.758% and 38.579% and 41.416%
%FPE probe fluorescence ([1]; time 4.500 h): 43.175% and 42.158% and 39.564% and 43.974%
%FPE probe fluorescence ([1]; time 4.750 h): 49.116% and 47.668% and 46.875% and 46.250%
%FPE probe fluorescence ([1]; time 5.000 h): 48.320% and 48.257% and 45.947% and 47.487%
%FPE probe fluorescence ([1]; time 5.250 h): 49.797% and 50.503% and 44.600% and 50.002%
%FPE probe fluorescence ([1]; time 5.500 h): 51.668% and 52.681% and 50.017% and 50.897%
%FPE probe fluorescence ([1]; time 5.750 h): 52.829% and 53.093% and 50.389% and 55.989%
%FPE probe fluorescence ([1]; time 6.000 h): 53.052% and 53.791% and 49.880% and 55.657%
Kd [2]: 485 nM
% Fluorescence polarization (mean) ([2]; log [nM] inhibitor 0.990): 100.000%
% Fluorescence polarization (mean) ([2]; log [nM] inhibitor 1.291): 101.730%
% Fluorescence polarization (mean) ([2]; log [nM] inhibitor 1.592): 105.820%
% Fluorescence polarization (mean) ([2]; log [nM] inhibitor 1.893): 101.210%
% Fluorescence polarization (mean) ([2]; log [nM] inhibitor 2.194): 93.370%
% Fluorescence polarization (mean) ([2]; log [nM] inhibitor 2.495): 87.150%
% Fluorescence polarization (mean) ([2]; log [nM] inhibitor 2.796): 78.760%
% Fluorescence polarization (mean) ([2]; log [nM] inhibitor 3.097): 63.020%
% Fluorescence polarization (mean) ([2]; log [nM] inhibitor 3.398): 50.120%
% Fluorescence polarization (mean) ([2]; log [nM] inhibitor 3.699): 44.570%
% Fluorescence polarization (mean) ([2]; log [nM] inhibitor 4.000): 22.560%
% Fluorescence polarization (mean) ([2]; log [nM] inhibitor […]): 0.000%
fold decrease in mu-opioid receptor binding affinity when TTR was present [3]: 9 fold
fold higher mu-opioid receptor binding affinity than naloxegol [3]: 3.5 fold
fold lower mu-opioid receptor binding affinity than naloxone [3]: 3 fold
Ki ([3]; binding affinity to mu-opioid receptor (Ki)): 0.81 nM
Ki ([3]; binding affinity to mu-opioid receptor (Ki) in the presence of TTR): 7.4 nM

CN1CC[C@]23c4c5ccc(O)c4O[C@H]2[C@@H](O)C=C[C@H]3[C@H]1C5 [Morphine, reference compound]
hot plate latency ([4]; iv): 60 s
hot plate latency ([4]; sc): 57.0 ± 2.5 s and 60 s
hot plate latency, compound alone ([4]; sc): 60 s
GI transit as % of saline group [5]: 18.81% and 20.1% and 15.01% and 14.94% and 19.9%
